Our source for the IC50 and IC90 values is ChEMBL document CHEMBL4483862, “Open-source discovery of chemical leads for next-generation chemoprotective antimalarials” (2018).

The assay has as its system Plasmodium berghei. Nature of the assay: Luciferase/luciferin-expressing antifolate-resistant parasites were used to infect a culture of HepG2 cells that were pre-incubated with compounds. Infected hepatocytes emit light due to the luciferase reaction. Assay results are presented as the percent inhibition of light emission compared to control. […]. The class given is functional. Particulars: sporozoite; for IC90: read-out: LUCIFERASE INFECTION ASSAY - IC90.

Bounds are passed on as bounds.

For the compound `NS(=O)(=O)c1ccc(CCNc2nn3c(-c4cccc(OC(F)(F)F)c4)cnc3s2)cc1`, the IC90 (usually the concentration at which the effect reaches the 90% level) is greater than 6.83 µM. The IC50 (usually the concentration that inhibits the measured activity by half) (FFLUC_HILL_SLOPE 3.32, FFLUC_R_SQUARED 0.88, HEPG2TOX_HILL_SLOPE 6.82, HEPG2TOX_R_SQUARED 0.258, PBLUC_HILL_SLOPE 3.52, PBLUC_R_SQUARED 0.409, read-out: LUCIFERASE INFECTION ASSAY - IC50) amounted to 4 µM.

Take `COCC(C)n1c(COc2ccccc2F)nnc1SC(C(=O)Nc1cc(C(F)(F)F)ccc1Cl)c1ccccc1` (stereo unspecified): the IC90 was 9.85 µM. Also, the IC50 (FFLUC_HILL_SLOPE 3.29, FFLUC_R_SQUARED 0.0514, HEPG2TOX_HILL_SLOPE 2.28, HEPG2TOX_R_SQUARED 0.446, PBLUC_HILL_SLOPE 4.03, PBLUC_R_SQUARED 0.508, read-out: LUCIFERASE INFECTION ASSAY - IC50) came out at 5.71 µM.

Regarding `O=C(c1ccccc1)c1cc(-c2nc3ccccc3[nH]2)c(-c2ccccc2)n2c1nc1ccccc12`, the concentration for an effect of 90% (IC90) was greater than 10 µM. The IC50 (FFLUC_HILL_SLOPE 3.37, FFLUC_R_SQUARED 0.587, PBLUC_HILL_SLOPE 3.5, PBLUC_R_SQUARED 0.455, read-out: LUCIFERASE INFECTION ASSAY - IC50) stood at 6.85 µM.

Turning to `O=C(Nc1nc(-c2c[nH]c3ccccc23)cs1)C1CCN(S(=O)(=O)/C=C/c2ccccc2)CC1`, the IC90 was greater than 10 µM. For the same compound, the IC50 (FFLUC_HILL_SLOPE 3.31, FFLUC_R_SQUARED 0.738, HEPG2TOX_HILL_SLOPE 1.04, HEPG2TOX_R_SQUARED 0.854, PBLUC_HILL_SLOPE 3.38, PBLUC_R_SQUARED 0.26, read-out: LUCIFERASE INFECTION ASSAY - IC50) is 5.31 µM.

`Cc1cc(C)c(N2C(=O)C=CC2=O)c(C)c1`: the IC90 was 13.1 µM. Moreover, the IC50 (FFLUC_HILL_SLOPE 3.47, FFLUC_R_SQUARED 0.6, PBLUC_HILL_SLOPE 4.24, PBLUC_R_SQUARED 0.739, read-out: LUCIFERASE INFECTION ASSAY - IC50) is 7.79 µM.

Turning to `O=C(Nc1ccc(Oc2ccc([N+](=O)[O-])c3cnccc23)cc1)c1ccccc1`, the IC90 was greater than 10 µM. Besides, the IC50 (FFLUC_HILL_SLOPE 3.45, FFLUC_R_SQUARED 0.514, PBLUC_HILL_SLOPE 3.38, PBLUC_R_SQUARED 0.0773, read-out: LUCIFERASE INFECTION ASSAY - IC50) turned out to be 7.36 µM.

In the case of `Cc1ccc(-n2c(Sc3ccc4nnnn4n3)nc3sc4c(c3c2=O)CCC(C)C4)cc1C` (stereo unspecified), the IC90 was greater than 10 µM. Also, for the setting “FFLUC_HILL_SLOPE 3.23, FFLUC_R_SQUARED 0.696, PBLUC_HILL_SLOPE 2.23, PBLUC_R_SQUARED 0.861, read-out: LUCIFERASE INFECTION ASSAY - IC50”, the IC50 was determined as 4.15 µM.

Consider `N#CC(C#N)=C/C=C(/Sc1ccc(F)c(Cl)c1)c1ccc(Cl)cc1`, for which the IC90 is 7.65 µM. Moreover, where the note is “FFLUC_HILL_SLOPE 3.34, FFLUC_R_SQUARED 0.746, HEPG2TOX_HILL_SLOPE 5.06, HEPG2TOX_R_SQUARED 0.992, PBLUC_HILL_SLOPE 1.74, PBLUC_R_SQUARED 0.619, read-out: LUCIFERASE INFECTION ASSAY - IC50”, the IC50 was determined as 2.17 µM.

Take `CCOC(=O)c1c(S(=O)(=O)N2CCN(Cc3ccccc3)CC2)c(-c2ccccc2)n(-c2ccccc2)c1C`: the IC90 is greater than 6.07 µM. Also, the IC50 (FFLUC_HILL_SLOPE 3.32, FFLUC_R_SQUARED 0.581, read-out: LUCIFERASE INFECTION ASSAY - IC50) is greater than 6.07 µM.

On to `Cc1cccc(Cn2nc(C(C)(C)C)cc2C(=O)Nc2ccc(C(C)(C)C)cc2)c1`, for which the IC90 was greater than 8.18 µM. Besides, the IC50 (FFLUC_HILL_SLOPE 3.48, FFLUC_R_SQUARED 0.696, read-out: LUCIFERASE INFECTION ASSAY - IC50) was greater than 8.18 µM.

As to `COc1cc(Cl)c(C)cc1-n1c(SC(C(C)=O)c2ccccc2)nc2ccccc2c1=O` (stereo unspecified), the IC90 was greater than 10 µM. In addition, the IC50 (FFLUC_HILL_SLOPE 3.43, FFLUC_R_SQUARED 0.242, HEPG2TOX_HILL_SLOPE 4.83, HEPG2TOX_R_SQUARED 0.785, PBLUC_HILL_SLOPE 3.87, PBLUC_R_SQUARED 0.683, read-out: LUCIFERASE INFECTION ASSAY - IC50) came out at 6.65 µM.

Regarding `COCCNc1ccnc2c(-c3ccccc3Oc3ccccc3)cnn12`, the IC90 was greater than 9.16 µM. For the same compound, where the note is “FFLUC_HILL_SLOPE 3.47, FFLUC_R_SQUARED 0.0365, PBLUC_HILL_SLOPE 0.975, PBLUC_R_SQUARED 0.706, read-out: LUCIFERASE INFECTION ASSAY - IC50”, the IC50 amounted to 3.91 µM.

For the compound `O=C(CCCc1ccc(F)cc1)c1ccc2c(c1)OCCO2`, the IC90 is 0.926 µM. In addition, the IC50 (FFLUC_HILL_SLOPE 3.34, FFLUC_R_SQUARED 0.538, PBLUC_HILL_SLOPE 0.746, PBLUC_R_SQUARED 0.706, read-out: LUCIFERASE INFECTION ASSAY - IC50) was found to be 0.0487 µM.

`CC1CCc2sc(C(=O)N/N=C/c3sc(N4CCCCC4)nc3-c3cccs3)cc2C1` (stereo unspecified): the IC90 came out at 5.03 µM. Further, the concentration for half-maximal inhibition (IC50) (FFLUC_HILL_SLOPE 3.43, FFLUC_R_SQUARED 0.712, HEPG2TOX_HILL_SLOPE 2.9, HEPG2TOX_R_SQUARED 0.728, PBLUC_HILL_SLOPE 3.74, PBLUC_R_SQUARED 0.491, read-out: LUCIFERASE INFECTION ASSAY - IC50) was determined as 2.79 µM.

Consider `O=C(Nc1ccc2c(c1)OC1(CCCCC1)O2)c1ccc[nH]c1=O`, for which the IC90 is greater than 10 µM. In addition, the IC50 (FFLUC_HILL_SLOPE 3.32, FFLUC_R_SQUARED 0.581, PBLUC_HILL_SLOPE 0.537, PBLUC_R_SQUARED 0.823, read-out: LUCIFERASE INFECTION ASSAY - IC50) was 0.172 µM.

For the compound `CCOc1c(Br)cc(C2NCC(c3cccc(OC)c3OC)c3c2[nH]c2ccccc32)cc1OC` (stereo unspecified), the IC90 is greater than 10 µM. Further, for the setting “FFLUC_HILL_SLOPE 3.42, FFLUC_R_SQUARED 0.537, read-out: LUCIFERASE INFECTION ASSAY - IC50”, the IC50 is greater than 10 µM.

Turning to `Cc1cc(C2=NNC(=NC(C)(C)C)SC2)c(C)n1-c1ccccc1`, the IC90 was greater than 10 µM. The IC50 (FFLUC_HILL_SLOPE 3.44, FFLUC_R_SQUARED 0.101, read-out: LUCIFERASE INFECTION ASSAY - IC50) is greater than 10 µM.

In the case of `COc1cc(/C=N/Nc2ccc(C(F)(F)F)cn2)ccc1OS(=O)(=O)c1ccc(C)c([N+](=O)[O-])c1`, the IC90 is greater than 10 µM. The IC50 (FFLUC_HILL_SLOPE 3.31, FFLUC_R_SQUARED 0.75, read-out: LUCIFERASE INFECTION ASSAY - IC50) was greater than 10 µM.

Regarding `O=C(c1oc2ccccc2c1CSc1ccc(Cl)cc1)N1CCCS/C1=N\c1ccccc1`, the IC90 is greater than 10 µM. In addition, the IC50 (FFLUC_HILL_SLOPE 3.49, FFLUC_R_SQUARED 0.279, read-out: LUCIFERASE INFECTION ASSAY - IC50) is greater than 10 µM.

Turning to `COc1ccc(/C=C(\C#N)C(=O)N(CCCN2C(=O)c3cccc4cccc(c34)C2=O)c2ccc(C)cc2C)cc1`, the IC90 was greater than 10 µM. Also, the IC50 (FFLUC_HILL_SLOPE 3.25, FFLUC_R_SQUARED 0.523, read-out: LUCIFERASE INFECTION ASSAY - IC50) was greater than 10 µM.

As to `Cc1ccc2nc(NC(=O)c3cccc(Cl)c3)c(C(=O)NCC(C)C)n2c1`, the IC90 worked out at 1.3 µM. Further, the IC50 (FFLUC_HILL_SLOPE 3.3, FFLUC_R_SQUARED 0.594, HEPG2TOX_HILL_SLOPE 1.2, HEPG2TOX_R_SQUARED 0.909, PBLUC_HILL_SLOPE 9.89, PBLUC_R_SQUARED 0.561, read-out: LUCIFERASE INFECTION ASSAY - IC50) came to 1.04 µM.

For the compound `NC(=O)c1ccsc1NC(=O)Cc1coc2cc3c(cc12)CCC3`, the IC90 turned out to be 3.88 µM. Also, the IC50 (FFLUC_HILL_SLOPE 3.24, FFLUC_R_SQUARED 0.678, PBLUC_HILL_SLOPE 11.8, PBLUC_R_SQUARED 0.833, read-out: LUCIFERASE INFECTION ASSAY - IC50) stood at 3.22 µM.

Take `O=C(CNc1cc(C(F)(F)F)ccc1Oc1ccc(Br)cc1)NCCC1=CCCCC1`: the IC90 was greater than 10 µM. Also, the IC50 (FFLUC_HILL_SLOPE 3.47, FFLUC_R_SQUARED 0.173, PBLUC_HILL_SLOPE 15.8, PBLUC_R_SQUARED 0.057, read-out: LUCIFERASE INFECTION ASSAY - IC50) came to 9.79 µM.

Regarding `CCCC(C)C(=O)Nc1nc2ccc(C)cn2c1C(=O)NC1CCCCC1` (stereo unspecified), the IC90 is greater than 8.91 µM. Further, the IC50 (FFLUC_HILL_SLOPE 3.24, FFLUC_R_SQUARED 0.792, read-out: LUCIFERASE INFECTION ASSAY - IC50) is greater than 8.91 µM.

Consider `O=C(NNC1=NN(c2ccccc2)c2ccc(Br)cc2N1)c1ccc(F)cc1`, for which the IC90 was greater than 10 µM. The IC50 (FFLUC_HILL_SLOPE 3.33, FFLUC_R_SQUARED 0.811, read-out: LUCIFERASE INFECTION ASSAY - IC50) was greater than 10 µM.

In the case of `CC(C)NC(=S)N/N=C1\C(=O)Nc2ccc(C(C)C)cc21`, the IC90 came to 4.02 µM. Further, under “FFLUC_HILL_SLOPE 3.36, FFLUC_R_SQUARED 0.392, HEPG2TOX_HILL_SLOPE 1.41, HEPG2TOX_R_SQUARED 0.93, PBLUC_HILL_SLOPE 4.04, PBLUC_R_SQUARED 0.837, read-out: LUCIFERASE INFECTION ASSAY - IC50”, the IC50 was 2.33 µM.

As to `O=C(Cc1cccs1)NCC(c1ccccc1Cl)c1c[nH]c2ccccc12` (stereo unspecified), the IC90 was determined as 9.35 µM. Where the note is “FFLUC_HILL_SLOPE 3.31, FFLUC_R_SQUARED 0.784, PBLUC_HILL_SLOPE 3.75, PBLUC_R_SQUARED 0.47, read-out: LUCIFERASE INFECTION ASSAY - IC50”, the IC50 amounted to 5.2 µM.

Consider `Oc1c(C(Nc2ccccn2)c2ccc(Cl)cc2Cl)ccc2cccnc12` (stereo unspecified), for which the IC90 was 5.13 µM. The IC50 (FFLUC_HILL_SLOPE 3.3, FFLUC_R_SQUARED 0.0348, HEPG2TOX_HILL_SLOPE 1.34, HEPG2TOX_R_SQUARED 0.812, PBLUC_HILL_SLOPE 6.8, PBLUC_R_SQUARED 0.449, read-out: LUCIFERASE INFECTION ASSAY - IC50) was 3.71 µM.
